Test system: NCI-H226 complex tumor spheroids, viability
Test: Anticancer human tumor NCI-H226 cell line growth inhibition;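 note: spheroids exposed to compound for 7 days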;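 for viability, T/C: 100% = DMSO vehicle control viability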
Details: for IC50: curve of first compound; for viability, T/C: stronger effect = lower value
From the text: Multicellular complex tumor spheroid response to DNA repair inhibitors in combination with DNA-damaging drugs
This study explores the anticancer activities of DNA-damaging drugs and inhibitors of DNA damage repair, both as single agents and in combinations. Complex tumor spheroids comprised of malignant cells, endothelial cells and mesenchymal stem cells served as an in vitro model for human solid tumors. This model system incorporates physiologically relevant features and patient-derived or established malignant cell lines with clinically relevant genetic alterations from many tumor types. Twenty-six patient-derived or established malignant cell lines were evaluated representing sarcoma, melanoma, small cell lung cancer (SCLC), non-small cell lung cancer (NSCLC), as well as bladder, ovarian and pancreatic cancers. The concentration ranges selected for each drug and investigational agent were based upon clinically achievable concentrations if the clinical Cmax of the agent was known.
Compounds. The drugs and compounds olaparib (NSC753686), talazoparib (NSC767125), berzosertib (NSC777718), elimusertib (NSC800525), nedisertib (NSC802822), VX-984 (NSC792969), AZD-1390 (NSC803789), temozolomide (NSC362856), topotecan (NSC609699), trabectedin (NSC813783), staurosporine (NSC755774), and gemcitabine (NSC613327) were obtained from the National Cancer Institute (NCI) Developmental Therapeutics Program Chemical Repository. The FDA-approved anticancer drug set is available from the Developmental Therapeutics Program at https://dtp.cancer.gov/organization/dscb/obtaining/available_plates.htm. […] The stock solutions were prepared in dimethyl sulfoxide (DMSO, Sigma-Aldrich, St. Louis, MO, cat. D2650) at 400-fold the tested concentration and stored at -70 degrees C. Prior to their use, the stock solutions were diluted in fresh medium and the final DMSO concentration in the assay was 0.25% (v/v). All drugs and investigational agents were tested over a range starting from a high concentration at or near the clinical Cmax and decreasing in half-log increments. If the clinical Cmax for an agent had not been determined, the highest concentration tested was 10 microM.
Cell Lines. The patient-derived cancer cell (PDC) lines: 156681-154-R-J1-PDC, 283228-195-R-J1-PDC, 287954-098-R-J1-PDC, 292921-168-R-J2-PDC, 349418-098-R-PDC, 425362-245-T-J1-PDC, 556581-035-R-J1-PDC, and BL0293-F563-PDC were received from the NCI Patient-Derived Models Repository (PDMR, https://pdmr.cancer.gov). The established cell lines HS-SY-2 (RRID:CVCL_8719), MPNST, and SYO-1 (RRID:CVCL_7146) were obtained from the Sloan Kettering Institute. The alveolar soft parts sarcoma cell line ASPS-1 (RRID:CVCL_S738) was established at the NCI and grown from internal seed stocks. The following established cell lines were purchased from the American Type Culture Collection (ATCC, Manassas, VA): G-401 (ATCC, cat. CRL-1441, RRID:CVCL_0270), SW982 (ATCC, cat. HTB-93, RRID:CVCL_1734), VA-ES-BJ (ATCC, cat. CRL-2138, RRID:CVCL_1785), NCI-H719 (ATCC, cat. CRL-5837, RRID:CVCL_1582), NCI-H196 (ATCC, cat. CRL-5823, RRID:CVCL_1509), NCI-H841 (ATCC, cat. CRL-5845, RRID:CVCL_1595), NCI-H1618 (ATCC, cat. CRL-5879, RRID:CVCL_1480), NCI-H1876 (ATCC, cat. CRL-5902, RRID:CVCL_1503), DMS 114 (ATCC, cat. CRL-2066; RRID:CVCL_1174), NCI-H211 (ATCC, cat. CRL-5824; RRID:CVCL_1529), and SW 1271 (ATCC, cat. CRL-2177, RRID:CVCL_1716). The small cell lung cancer cell line COR-L88 was purchased from Sigma-Aldrich (cat. 92031917-1VL, RRID:CVCL_1141). The non-small cell lung cancer cell lines NCI-H226 (RRID:CVCL_1544) and NCI-H322M (RRID:CVCL_1557) were established at the NCI and grown from internal seed stocks. Pooled donor human umbilical vein endothelial cells (HUVEC, Lonza, cat. CC-2519) and human mesenchymal stem cells (hMSC, Lonza, cat. PT-2501) were purchased from Lonza (Walkersville, MD).
Cell Culture. All cells were maintained in an incubator at 37 degrees C and 5% CO2 with 95% humidity. […]

O=C(c1cc(Cc2n[nH]c(=O)c3ccccc23)ccc1F)N1CCN(C(=O)C2CC2)CC1 + Cn1nnc2c(C(N)=O)ncn2c1=O
IC50 (second compound 1 µM): > 30 µM
IC50 (second compound 3.16 µM): > 30 µM
IC50 (second compound 10 µM): > 30 µM
IC50 (second compound 31.6 µM): > 30 µM
IC50 (second compound 100 µM): > 30 µM
viability, T/C (second compound 1 µM, first compound 0.0949 µM): 99.9%
viability, T/C (second compound 1 µM, first compound 0.3 µM): 99.8%
viability, T/C (second compound 1 µM, first compound 0.949 µM): 107%
viability, T/C (second compound 1 µM, first compound 3 µM): 104%
viability, T/C (second compound 1 µM, first compound 9.49 µM): 99.2%
viability, T/C (second compound 1 µM, first compound 30 µM): 86.4%
viability, T/C (second compound 3.16 µM, first compound 0.0949 µM): 105%
viability, T/C (second compound 3.16 µM, first compound 0.3 µM): 96.7%
viability, T/C (second compound 3.16 µM, first compound 0.949 µM): 105%
viability, T/C (second compound 3.16 µM, first compound 3 µM): 95.4%
viability, T/C (second compound 3.16 µM, first compound 9.49 µM): 81.9%
viability, T/C (second compound 3.16 µM, first compound 30 µM): 80.3%
viability, T/C (second compound 10 µM, first compound 0.0949 µM): 112%
viability, T/C (second compound 10 µM, first compound 0.3 µM): 104%
viability, T/C (second compound 10 µM, first compound 0.949 µM): 95.1%
viability, T/C (second compound 10 µM, first compound 3 µM): 101%
viability, T/C (second compound 10 µM, first compound 9.49 µM): 84.6%
viability, T/C (second compound 10 µM, first compound 30 µM): 77.3%
viability, T/C (second compound 31.6 µM, first compound 0.0949 µM): 98.3%
viability, T/C (second compound 31.6 µM, first compound 0.3 µM): 101%
viability, T/C (second compound 31.6 µM, first compound 0.949 µM): 110%
viability, T/C (second compound 31.6 µM, first compound 3 µM): 95.1%
viability, T/C (second compound 31.6 µM, first compound 9.49 µM): 84.6%
viability, T/C (second compound 31.6 µM, first compound 30 µM): 82%
viability, T/C (second compound 100 µM, first compound 0.0949 µM): 114%
viability, T/C (second compound 100 µM, first compound 0.3 µM): 113%
viability, T/C (second compound 100 µM, first compound 0.949 µM): 125%
viability, T/C (second compound 100 µM, first compound 3 µM): 99.3%
viability, T/C (second compound 100 µM, first compound 9.49 µM): 97.8%
viability, T/C (second compound 100 µM, first compound 30 µM): 80.5%

From PubChem BioAssay AID1845210 (Molecular Pharmacology Branch, DTP, NCI, 2023)
